How the values were obtained:
[1] = system: mice; test: Cytokine induction (IL-6, IP-10) in mice after intravenous administration; type: in vivo; design: IL-6 / IP-10: unit not given here; conditions: 0.5 mpk, 6 hours
Text: The introduction of foreign material into a mammalian body induces an innate immune response that promotes cytokine production. Such immune responses to, for example, nanoparticle compositions including therapeutic and/or prophylactics, are undesirable. The induction of certain cytokines is thus measured to evaluate the […] of nanoparticle compositions. The concentrations of various cytokines in mice upon intravenous administration of nanoparticle compositions presented in Table 1A at a dosage of 0.5 mpk was measured at 6 hours. The standard MC3 formulation and a PBS control were also tested. As is evident in Table 7, IL-6 induction was highest for compositions including Compounds 1, 3, 9, 19, and 26, while IP-10 induction was highest for compositions including Compounds 3, 4, 7, 20, and 26. IL-6 induction was lowest for compositions including Compounds 4, 11, 12, and 28. IP-10 induction was lowest for compositions including Compounds 10, 11, 12, 13, 15, 17, and 18.
The expression of hEPO and cytokine induction in mice intravenously administered a nanoparticle composition at a dose of 0.5 mpk were measured at 3, 6, and 24 hours. […] The expression of hEPO in mice intramuscularly administered a nanoparticle composition from Table 1B at a dose of 0.01 mpk were measured at 3, 6, and 24 hours. […] (see also FIG. 9.)

[2] = system: mice; test: Luc expression (total flux) after intramuscular administration; type: in vivo; conditions: 6 hours after intramuscular administration, Luc mRNA and H10 mRNA
Experimental: The numbers 1-7 in this figure correspond to MC3, Compounds 168-170, and 173-175 respectively.
In order to monitor how effectively various nanoparticle compositions deliver therapeutic and/or prophylactics to targeted cells, different nanoparticle compositions including a particular therapeutic and/or prophylactic (for example, a modified or naturally occurring RNA such as an mRNA) are prepared and administered to rodent populations. Mice are intravenously, intramuscularly, intraarterially, or intratumorally administered a single dose including a nanoparticle composition with a formulation such as those provided in Example 3. In some instances, mice may be made to inhale doses. Dose sizes may range from 0.001 mg/kg to 10 mg/kg, where 10 mg/kg describes a dose including 10 mg of a therapeutic and/or prophylactic in a nanoparticle composition for each 1 kg of body mass of the mouse. A control composition including PBS may also be employed.
The total flux (measured by area under the curve, AUC) induced by administration of a formulation including a given lipid relative to that induced by administration of a formulation including MC3 was also measured for several lipids.
Sample formulations including both modified luciferase (Luc) mRNA and H10 mRNA were prepared and administered intramuscularly and the resulting expression and immunogenicity were evaluated simultaneously. Formulations including compounds according to Formula (I), (IA), (II), (IIa), (IIb), (IIc), (IId) or (IIe) were prepared and administered at doses of 0.001 and 0.01 mpk (e.g., doses of 0.0005 mpk of a formulation including Luc mRNA and a formulation including H10 mRNA or doses of 0.005 mpk of a formulation including Luc mRNA and a formulation including H10 mRNA).
Sample formulations including modified luciferase (Luc) mRNA prepared and administered intramuscularly and the resulting expression and immunogenicity were evaluated simultaneously. Formulations including compounds according to Formula (I), (IA), (II), (IIa), (IIb), (IIc), (IId) or (IIe) were prepared and administered at dose of […] 0.01 mpk.
The fluxes measured upon intravenous and intramuscular administration are compared in Table 6. Fluxes are presented as fold increase over that measured for MC3 formulations.

IP-10 [1]	IL-6 [1]	SMILES	Total flux (p/s) 0.001 mpk Dose [2]	Total flux (p/s) 0.01 mpk Dose [2]
687.14		CCCCCCCCCCCCCCCCCCN(CCO)CCCCCCCC(=O)OC(CCCCCCCC)CCCCCCCC [Compound 1, Heptadecan-9-yl 8-((2-hydroxyethyl)(octadecyl)amino)octanoate]		
468.86	70.95	CCCCCCCCCCCCCCN(CCO)CCCCCCCC(=O)OC(CCCCCCCC)CCCCCCCC [Compound 2, Heptadecan-9-yl 8-((2-hydroxyethyl)(tetradecyl)amino)octanoate]	3.55E+06 p/s	6.16E+07 p/s
	116.35	CCCCCCCCCN(CCCO)CCCCCCCC(=O)OC(CCCCCCCC)CCCCCCCC [Compound 7, Heptadecan-9-yl 8-((3-hydroxypropyl)(nonyl)amino)octanoate]	3.65E+06 p/s	7.48E+07 p/s
	88.81	CCCCCCCCCOC(=O)CCCCCCCN(CCCCCCCC(=O)OC(CCCCCCCC)CCCCCCCC)CC(C)O (centres unmarked) [Compound 10, Heptadecan-9-yl 8-((2-hydroxypropyl)(8-(nonyloxy)-8-oxooctyl)amino) octanoate]		
	29.07	CCCCCCCCCOC(=O)CCCCCCCN(CCCCCCCC(=O)OC(CCCCCCCC)CCCCCCCC)CC(O)CC (centres unmarked) [Compound 13, Heptadecan-9-yl 8-((2-hydroxybutyl)(8-(nonyloxy)-8-oxooctyl)amino) octanoate]		
621.49	75.29	CCCCCCCCCOC(=O)CCCCCCCN(CCCCCCCC(=O)OC(CCCCCCCC)CCCCCCCC)CCN(C)C [Compound 14, Heptadecan-9-yl 8-((2-(dimethylamino)ethyl)(8-(nonyloxy)-8-oxooctyl)amino)octanoate]		
	64.65	CCCCCCCCCOC(=O)CCCCCCCN(CCCCCCCC(=O)OC(CCCCCCCC)CCCCCCCC)CCOC [Compound 15, Heptadecan-9-yl 8-((2-methoxyethyl)(8-(nonyloxy)-8-oxooctyl)amino)octanoate]		
206.75	32.01	CCCCCCCCCOC(=O)CCCCCCCN(CCCCCCCC(=O)OC(CCCCCCCC)CCCCCCCC)CCCOC [Compound 16, Heptadecan-9-yl 8-((3-methoxypropyl)(8-(nonyloxy)-8-oxooctyl)amino) octanoate]		
	138.43	CCCCCCCCCOC(=O)CCCCCCCN(CCCCCCCC(=O)OC(CCCCCCCC)CCCCCCCC)CCOCCN(C)C [Compound 17, Heptadecan-9-yl 8-((2-(2-(dimethylamino)ethoxy)ethyl) (8-(nonyloxy)-8-oxooctyl)amino)octanoate]		
1468.94		CCCCCCCCCOC(=O)CCCCCCCN(CCCO)CCCCCCCC(=O)OC(CCCCCCCC)CCCCCCCC [Compound 19, Heptadecan-9-yl 8-((3-hydroxypropyl)(8-(nonyloxy)-8-oxooctyl)amino) octanoate]	3.28E+06 p/s	2.96E+07 p/s
976.50	90.54	CCCCCCCCCOC(=O)CCCCCCCN(CCCCCCCC(=O)OC(CCCCCCCC)CCCCCCCC)C1CCCCC1O (centres unmarked) [Compound 22, Heptadecan-9-yl 8-((2-hydroxycyclohexyl)(8-(nonyloxy)-8-oxooctyl)amino)octanoate]		
1015.95	94.00	CCCCCCCCCOC(=O)CCCCCCCN(CCO)CCCCCCCCCC(=O)OC(CCCCCCCC)CCCCCCCC [Compound 23, Heptadecan-9-yl 10-((2-hydroxyethyl)(8-(nonyloxy)-8-oxooctyl)amino) decanoate]	8.27E+06 p/s	2.20E+06 p/s
345.56	161.07	CCCCCCCCCOC(=O)CCCCCCCN(CCO)CCCCCC(=O)OC(CCCCCCCC)CCCCCCCC [Compound 27, Nonyl 8-((6-(heptadecan-9-yloxy)-6-oxohexyl)(2-hydroxyethyl)amino) octanoate]	2.55E+06 p/s	3.17E+07 p/s
283.13		CCCCCCCCC(CCCCCCCC)OC(=O)CCCCCCCN(CCO)CCCCCCCC(=O)OCC1CC1CCCCCC (centres unmarked) [Compound 28, Heptadecan-9-yl 8-((8-((2-hexylcyclopropyl)methoxy)-8-oxooctyl)(2-hydroxyethyl)amino)octanoate]	6.73E+05 p/s	5.56E+06 p/s

More lines, now with the values behind:

SMILES	IP-10 [1]	IL-6 [1]	Total flux (p/s) 0.001 mpk Dose [2]	Total flux (p/s) 0.01 mpk Dose [2]
CCCCCCCCC(CCCCCCCC)OC(=O)CCCCCCCN(CCO)CCCCCC [Compound 5, Heptadecan-9-yl 8-(hexyl(2-hydroxyethyl)amino)octanoate]	487.16	94.07	9.84E+05 p/s	3.55E+06 p/s
CCCCCCCCCN(CCCCCCCC(=O)OC(CCCCCCCC)CCCCCCCC)CCCn1ccnc1 [Compound 8, Heptadecan-9-yl 8-((3-(1H-imidazol-1-yl)propyl)(nonyl)amino)octanoate]			7.81E+05 p/s	3.32E+06 p/s
CCCCCCCCCOC(=O)CCCCCCCN(CCCCCCCC(=O)OC(CCCCCCCC)CCCCCCCC)CCOC(C)=O [Compound 9, Heptadecan-9-yl 8-((2-acetoxyethyl)(8-(nonyloxy)-8-oxooctyl)amino) octanoate]	366.53			
CCCCCCCCCOC(=O)CCCCCCCN(CCCCCCCC(=O)OC(CCCCCCCC)CCCCCCCC)C[C@H](C)O [Compound 12, Heptadecan-9-yl (S)-8-((2-hydroxypropyl)(8-(nonyloxy)-8-oxooctyl)amino)octanoate]			8.02E+04 p/s	8.90E+05 p/s
CCCCCCCCCOC(=O)CCCCCCCN(CCO)CCCCCCCC(=O)OC(CCCCCC)CCCCCCCC (centres unmarked) [Compound 32, nonyl 8-((2-hydroxyethyl)(8-oxo-8-(pentadecan-7-yloxy)octyl)amino) octanoate]			7.37E+05 p/s	1.03E+07 p/s
CCCCCCCCCOC(=O)CCCCCCCN(CCO)CCCCCCCC(=O)OC(CC)CCCCCCCC (centres unmarked) [Compound 35, nonyl 8-((2-hydroxyethyl)(8-oxo-8-(undecan-3-yloxy)octyl)amino) octanoate]			2.45E+06 p/s	8.12E+06 p/s
CCCCCCCCCOC(=O)CCCCCCCN(CCO)CCCCCCCC(=O)OC(CCCC)CCCC [Compound 57, nonan-5-yl 8-((2-hydroxyethyl)(8-(nonyloxy)-8-oxooctyl)amino) octanoate]			1.16E+05 p/s	2.23E+05 p/s
CCCCC/C=C\C/C=C\CCCCCCCCN(CCO)CCCCCCCC(=O)OCCCCCCCCC [Compound 136, Nonyl 8-((2-hydroxyethyl)((9Z,12Z)-octadeca-9,12-dien-1-yl)amino)octanoate]	887.91	28.69		
CCCCCC/C=C\COC(=O)CCCCCCCN(CCO)CCCCCCCC(=O)OC/C=C\CCCCCC [Compound 139, Di((Z)-non-2-en-1-yl) 8,8′-((2-hydroxyethyl)azanediyl)dioctanoate]	153.36	23.57		
CCCCCCCCCCCOC(=O)CCCCCN(CCO)CCCCCC(=O)OCCCCCCCCCCC [Compound 141, Diundecyl 6,6′-((2-hydroxyethyl)azanediyl)dihexanoate]	1072.04	327.15		

Source: US12404232B2, “Compounds and compositions for intracellular delivery of therapeutic agents” (ModernaTX, Inc., priority 2015, dated 2025)
